{"source": "patent US20130202594A1", "about": "“ALK1 Antagonists and Their Uses in Treating Renal Cell Carcinoma” (priority 2012, published 2013)", "key": {"[1]": {"test_system": "786-0 cells", "experiment": "786-0 human RCC tumor xenograft model", "format": "in vivo, mouse", "conditions": "sunitinib 53.6 mg/kg gavage 6 of 7 days; ALK1-Fc 10 mg/kg IP 3 times per week", "description": "786-0 cells, a von Hippel Lindau (VHL)-deficient human renal cell carcinoma (RCC) cell line (see Iliopoulos et al., Nature Medicine 1995; 1:822-6), was obtained from the American Type Culture Collection, and cultured in RPMI 1640 medium (Cellgro). Media was supplemented with 2 mmol/L L-glutamine, 10% FCS, and 1% streptomycin (50 μg/mL), and cells were cultured at 37° C. with 5% CO2. 786-0 cells were harvested from subconfluent cultures by a brief exposure to 0.25% trypsin and 0.02% EDTA. Trypsinization was stopped with medium containing 10% fetal bovine serum and the cells were washed once in serum-free medium and resuspended in PBS. Only suspensions consisting of single cells with >90% viability were used for the injections.\nTo establish human RCC xenografts, 786-0 tumor cells were injected subcutaneously (1×10^7 cells) into the flanks of 6- to 8-week-old female athymic nude/beige mice (Charles River Laboratories) that were of 20 g average body weight. Tumors developed in >80% of the mice and were usually visible within a few days of implantation. Mice were treated with vehicle plus Fc, sunitinib plus Fc, vehicle plus ALK-Fc, or sunitinib plus ALK-Fc when the tumors had grown to a diameter of 12 mm. Sunitinib (53.6 mg/kg; Pfizer) was administered 6 of 7 days per week by gavage beginning. […] Tumors were measured every two days while mice were on treatment."}, "[2]": {"test_system": "MCF-7 cell line", "experiment": "MCF-7 orthotopic breast cancer xenograft", "format": "in vivo, mouse", "conditions": "10 or 30 mg/kg twice per week IP", "description": "The estrogen-receptor-positive (ER+), luciferase expressing cell line, MCF-7, was also tested in an orthotopic implantation model. In this model, female nude mice are implanted subcutaneously with a 60 day slow release pellet of 17β-estradiol. Two days following pellet implantation, 5×10^6 MCF-7 tumor cells were implanted into the mammary fat pad. Mice were treated twice per week with hALK1-Fc at 3, 10 and 30 mg/kg, or vehicle control, by the IP route. Tumor progression was followed by bioluminescent imaging on a weekly basis with an IVIS-Spectrum imager (Caliper Life Sciences). In vehicle treated mice tumors progressed rapidly until study day 26 (FIG. 15). After day 26, there were fluctuations in tumor luminescence until the conclusion of the study at day 60 (when the estradiol pellets were depleted). These fluctuations are due to a common feature of this model in that the rapid tumor growth can exceed the angiogenic response of the host animals leading to tumor necrosis and a concomitant drop-off in luminescent signal. The remaining cells continue to grow leading to an increased signal."}, "[3]": {"molecular_target": "T1, GDF5 (Homo sapiens, UniProt P43026)", "T1 sequence (P43026 382-501)": "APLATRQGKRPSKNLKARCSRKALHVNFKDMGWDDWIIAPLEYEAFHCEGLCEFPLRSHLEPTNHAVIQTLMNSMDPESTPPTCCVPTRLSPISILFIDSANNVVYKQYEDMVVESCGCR", "experiment": "Biacore binding to hALK1-Fc: GDF5", "description": "(§1) ALK1 is a type 1 receptor for ligands of the TGFβ family. Multiple members of the TGFβ family were tested for binding to a human ALK1-Fc fusion protein, using a Biacore™ system."}, "[4]": {"test_system": "endothelial cells", "experiment": "Endothelial cell tube forming assay on Matrigel with ECGS", "format": "cell-based", "conditions": "for tube formation compared with endostatin: endostatin 100 ng/ml", "source_text": "In order to evaluate the angiogenic effect of ALK1-Fc in an in vitro system, we assayed the effectiveness of the compound in reducing tube formation of endothelial cells on a Matrigel substrate. This technique is commonly used to assess neovascularization, giving both rapid and highly reproducible results. Endothelial Cell Growth Supplement (ECGS) is used to induce the formation of microvessels from endothelial cells on Matrigel, and the efficacy of anti-angiogenic compounds are then gauged as a reduction of cord formation in the presence of both the drug and ECGS over an 18 hour timecourse. As expected, addition of ECGS (200 ng/ml) induced significant cord formation, as compared to the negative control (no treatment added), which indicates basal levels of endothelial cell cord formation produced on Matrigel substrate (FIG. 5)."}, "[5]": {"molecular_target": "T2, BMP2 (Homo sapiens, UniProt P12643)", "T2 sequence (P12643 283-396)": "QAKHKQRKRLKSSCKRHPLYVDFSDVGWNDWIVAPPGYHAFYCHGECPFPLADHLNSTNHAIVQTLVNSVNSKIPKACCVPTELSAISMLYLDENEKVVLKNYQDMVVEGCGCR", "experiment": "Biacore binding to hALK1-Fc: BMP2", "description": "as §1"}, "[6]": {"molecular_target": "T3, BMP4 (Homo sapiens, UniProt P12644)", "T3 sequence (P12644 293-408)": "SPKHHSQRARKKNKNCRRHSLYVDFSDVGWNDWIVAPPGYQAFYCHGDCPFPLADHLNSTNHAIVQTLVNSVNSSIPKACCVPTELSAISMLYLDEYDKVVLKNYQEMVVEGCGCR", "experiment": "Biacore binding to hALK1-Fc: BMP4", "description": "as §1"}, "[7]": {"molecular_target": "GDF11 (Homo sapiens, UniProt O95390)", "sequence (O95390 299-407, species assumed)": "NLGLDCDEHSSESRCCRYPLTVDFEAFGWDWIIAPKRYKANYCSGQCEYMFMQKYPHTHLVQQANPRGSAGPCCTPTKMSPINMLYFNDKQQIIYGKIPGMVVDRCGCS", "experiment": "Biacore binding to hALK1-Fc: GDF11", "description": "as §1"}, "[8]": {"test_system": "SMAD 1/5/8 phosphorylation in HUVEC cells", "experiment": "rhBMP-9 induced SMAD 1/5/8 phosphorylation in HUVEC cells", "format": "cell-based, human", "conditions": "250 ng/ml, rhBMP-9 50 ng/ml", "description": "Activation of SMAD phosphorylation is commonly used to assay activation of upstream activin receptors. ALK1 is known to modulate phosphorylation of SMAD proteins 1,5 and 8 upon activation by its ligand. Here, we added rhBMP-9 (50 ng/ml) to initiate SMAD phosphorylation in HUVEC cells, a human endothelial cell line which innately expresses ALK1 receptor, over a timecourse of 30 minutes. Phosphorylation of SMAD 1/5/8 was seen 5 minutes after treatment of cells with ligand and phosphorylation was maintained for the entirety of the 30 minute period."}, "[9]": {"test_system": "MDA-MB-231 cell line", "experiment": "MDA-MB-231-Luc orthotopic breast cancer xenograft", "format": "in vivo, mouse", "conditions": "similar experiment; dose levels as low as 3 mg/kg", "source_text": "The MDA-MB-231 breast cancer cell line (derived from ER− cells) was stably transfected with the luciferase gene to allow for the in vivo detection of tumor growth and potential metastasis. In this study, 1×10^6 MDA-MB-231-Luc cells were implanted orthotopically in the mammary fat pad of athymic nude mice (Harlan). Tumor progression was followed by bioluminescent detection using an IVIS Spectrum imaging system (Caliper Life Sciences). An increase in the luminescence (number of photons detected) corresponds to an increase in tumor burden.\nThirty female nude mice were injected with 1×10^6 tumor cells into the mammary fat pad. Three days after tumor implantation the mice were treated with either vehicle control or mALK1-Fc (30 mg/kg) twice per week by subcutaneous (SC) injection. […] This may be expected of an antiangiogenic compound in that tumors may be able to survive to a certain size before requiring new blood vessel formation to support continued growth."}}, "note": "Entries after “also recorded” stand apart in the source; their conditions may differ."}
{"substance": "hALK1-Fc: extracellular domain of human ALK1 (amino acids 22-120) fused to a human IgG1 Fc with a minimal linker (SEQ ID NO:3/14)", "values": [{"measurement": "tumor growth", "setting": "[1]", "result": "trended toward inhibiting tumor growth as a single agent"}, {"measurement": "tumor size / growth (bioluminescence)", "setting": "[2]", "result": "maintain tumor size at a constant level; also recorded: significant growth-delaying effect"}, {"measurement": "Kd", "setting": "[3]", "result": "~50", "unit": "nM"}, {"measurement": "cord formation", "setting": "[4]; 100 ng/ml, ECGS 200 ng/ml, 18 hour", "result": "cord formation was visibly reduced"}, {"measurement": "tube formation compared with endostatin", "setting": "[4]; ECGS", "result": "more potent anti-angiogenic activity than the negative control endostatin"}, {"measurement": "tube formation compared with endostatin", "setting": "[4]; ECGS, listed as ACE", "result": "to a greater degree than the positive control, Endostatin"}, {"measurement": "neovascularization (quantification of vessel length)", "setting": "[4]; every concentration, ECGS", "result": "reduced neovascularization to basal levels"}, {"measurement": "binding to hALK1-Fc", "setting": "[5]", "result": "failed to show substantial binding; also recorded: only limited binding"}, {"measurement": "binding to hALK1-Fc", "setting": "[6]", "result": "failed to show substantial binding; also recorded: only limited binding"}, {"measurement": "binding to hALK1-Fc", "setting": "[7]", "result": "failed to show substantial binding"}, {"measurement": "SMAD 1/5/8 phosphorylation", "setting": "[8]", "result": "SMAD 1/5/8 phosphorylation was reduced"}, {"measurement": "tumor progression (bioluminescence)", "setting": "[9]", "result": "similar, if slightly lesser, effects"}]}
